Assay results: article PMC9605072, “Guanidine Derivatives of Quinazoline-2,4(1H,3H)-Dione as NHE-1 Inhibitors and Anti-Inflammatory Agents” (Life, 2022)
Entries after “also recorded” stand apart in the source; their conditions may differ.

What was measured:
male ICR mice = assay: Tail suspension test (antidepressant activity); format: in vivo; conditions: mean ± SD, n = 6, vehicle 264.8 ± 11.6 s
Protocol: Antidepressant activity was determined on 36 male ICR mice weighing 22–25 g as described in [14] using the Panlab LE808 apparatus.
The tail suspension test was used to assess the antidepressant activity of the most-active NHE-1 inhibitors.

[1] = test system: LPS-stimulated C57bl/6j peritoneal macrophages; assay: LPS-induced nitric oxide synthesis in primary peritoneal macrophages (Griess); format: cell-based, mice; conditions: Mus musculus, Peritoneal macrophage, LPS 100 ng/mL, 22 h incubation, n = 3; for IC50: read-out: NO Synthesis IC50 ± SE
Protocol: (§1) Primary C57bl/6j murine macrophages were elicited with intraperitoneal injection of 3% peptone solution as per the standard procedure. Stimulation of inflammatory response was performed with E. coli O127:B8 LPS (100 ng/mL final concentration).
(§2) Nitric oxide was determined in culture supernatants as a nitrite anion with a standard Griess reagent after 22 h of incubation with test compounds at a wavelength of 550 nm with a microplate reader Infinite M200 PRO (Tecan GmbH, Grodig, Austria). Concentrations of IL-6 and TNF- α in cell supernatants were quantified with commercial ELISA kits according to the manufacturer’s instructions (Cloud-clone Corp., Katy, TX, USA).
(§3) Given our primary focus on the development of agents against cytokine-mediated tissue damage, we evaluated the target compounds as inhibitors of pro-inflammatory macrophage activation. Primary peritoneal macrophages were isolated from C57bl/6j mice, pooled, and stimulated with E. coli LPS as TLR4 agonist. Pro-inflammatory activation was assessed as nitric oxide (NO) synthesis and interleukin-6 (IL-6) secretion. The cytotoxicity of the compounds was monitored in parallel using the lactate dehydrogenase assay.

[2] = test system: LPS-stimulated C57bl/6j peritoneal macrophages; assay: LPS-induced IL-6 secretion in primary peritoneal macrophages (ELISA); format: cell-based, mice; conditions: Mus musculus, Peritoneal macrophage; LPS 100 ng/mL; n = 3; read-out: IL-6 Secretion IC50 ± SE
Protocol: as §1, §2, §3

[3] = Cytotoxicity, lactate dehydrogenase (LDH) assay; format: cell-based, mice; conditions: C57bl/6j, mouse, primary peritoneal macrophages stimulated with E. coli LPS; LPS-stimulated macrophages; n = 3; read-out: LDH CC50 ± SE
Protocol: (§4) The activity of lactate dehydrogenase (LDH) in a cell culture medium was determined as reported by us previously with a microplate reader Infinite M200 PRO (Tecan, Austria).
as §3
(§5) In an attempt to identify safer alternatives to steroid anti-inflammatory agents, it is mandatory to evaluate lead compounds for immunodepressant activity. To do so, we determined the influence of compound 4a on macrophage phagocytosis after 72 h of incubation. Cell viability was monitored in parallel via the LDH assay.

rabbit platelets = assay: ADP-induced platelet aggregation assay; format: cell-based; conditions: Oryctolagus cuniculus, m ± SD, n = 5
Protocol: Platelet aggregation was assessed on a two-channel laser analyzer “BIOLA-220 LA” (Russia) as described previously using rabbit platelets.

rabbit platelet NHE-1 = biological target: T1, rabbit platelet NHE-1 (Oryctolagus cuniculus, UniProt P23791); assay: NHE-1 inhibition assay (rabbit platelets, laser aggregometer); format: cell-based; conditions: for inhibition at 0.01 µM: 10 nM, m ± SD, n = 6
T1 construct: endogenous in cells; host or cells: rabbit platelets
T1 sequence (P23791 whole entry): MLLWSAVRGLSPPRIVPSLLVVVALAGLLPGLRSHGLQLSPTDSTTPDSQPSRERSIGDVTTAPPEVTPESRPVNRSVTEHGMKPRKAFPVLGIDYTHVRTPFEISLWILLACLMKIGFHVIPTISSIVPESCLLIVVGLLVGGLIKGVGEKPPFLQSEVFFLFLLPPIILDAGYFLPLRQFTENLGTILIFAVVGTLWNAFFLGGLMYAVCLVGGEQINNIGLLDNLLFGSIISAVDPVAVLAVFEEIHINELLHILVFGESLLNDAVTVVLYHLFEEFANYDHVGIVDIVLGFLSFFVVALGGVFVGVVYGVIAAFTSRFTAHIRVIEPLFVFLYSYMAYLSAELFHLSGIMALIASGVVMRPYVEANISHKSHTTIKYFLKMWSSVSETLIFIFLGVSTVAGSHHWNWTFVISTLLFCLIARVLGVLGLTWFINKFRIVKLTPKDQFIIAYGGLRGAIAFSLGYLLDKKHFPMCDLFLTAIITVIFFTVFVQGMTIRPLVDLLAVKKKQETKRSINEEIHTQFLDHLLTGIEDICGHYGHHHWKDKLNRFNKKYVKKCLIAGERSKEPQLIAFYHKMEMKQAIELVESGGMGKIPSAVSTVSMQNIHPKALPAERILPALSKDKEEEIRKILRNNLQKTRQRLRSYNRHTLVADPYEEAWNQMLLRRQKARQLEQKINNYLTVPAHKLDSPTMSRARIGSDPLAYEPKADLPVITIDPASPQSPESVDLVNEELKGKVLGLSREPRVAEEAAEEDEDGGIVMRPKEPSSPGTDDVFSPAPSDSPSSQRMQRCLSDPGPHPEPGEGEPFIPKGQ
Protocol: Inhibition of rabbit platelet NHE-1 was determined according to the method of [8, 9] in our modification, which was reported by us previously using the laser aggregometer BIOLA-220 LA (Russia).
Target compounds were evaluated as inhibitors of rabbit platelet NHE-1 (Table 1). It was shown that the substitution of H^5 with bromine decreased the activity of compounds 3b and 4b, indicating possible steric limitations of the binding site.

rat intraocular pressure = assay: Intraocular pressure study (TonoVet); format: in vivo; conditions: rats, 0.4% eye drops; for Max IOP Reduction: m ± SD, n = 5; for IOP-lowering activity reduction relative to 4a: vs 4a
Protocol: Intraocular pressure was measured on 75 adult outbred rats of both sexes with a TonoVet device (Finland) as reported by us previously.
To access the influence on rat eye aqueous humor formation, the studied compounds were administered as 0.4% eye drops. […] Introduction of 5-bromine (4b) or acyclic guanidine N^1 , N^3 -side chains (3a) led to 2- and 3-fold activity reduction, respectively.

[4] = test system: C57bl/6j peritoneal macrophages; assay: Cytotoxicity, lactate dehydrogenase (LDH) assay; format: cell-based, mice; conditions: 72 h of incubation, in parallel to phagocytosis
Protocol: as §4, §3, §5

[5] = test system: C57bl/6j peritoneal macrophages; assay: Macrophage phagocytosis assay; format: cell-based, mice; conditions: for Macrophage spreading (visually scored): yeast-treated macrophages, 72 h
Protocol: The phagocytic activity of peritoneal macrophages was assessed after staining with Azur-Eosin with Romanovsky’s modifications as reported by us previously with a light microscopy using a Mikmed-6 (LOMO, Saint Petersburg, Russia) equipped with a digital camera.
as §5
(Figure 3). The mean number of phagocytosed particles per cell was […]. […] Macrophage spreading was registered and visually scored as a phenotypic marker of cell activation phagocytic capacity.

C57bl/6j mice = assay: LPS-induced acute lung injury model; format: in vivo; conditions: for Motor activity, open field test: 2 and 22 h after LPS
Protocol: Prior to the experiment, C57BL/6J mice were randomized according to body weight and motor activity in an open field test. […] Animals of the control group were injected with an equal volume of the vehicle. Animals were anesthetized with isoflurane inhalation until the breathing rate decreased 1 h later. Mice were suspended by the front incisors on an inclined surgical table; the tongue was pulled out with narrow curved tweezers, and 1 mg/mL of E. coli O127:B8 LPS (Sigma-Aldrich, Israel) in 1 mL/kg sterile saline was injected into the back of the oropharynx to allow aspiration. Intact animals received an equal volume of sterile saline in a similar way.
The open field test was performed with the NPO “Open Science” (Russia) arena of 44 cm diameter and 32 cm wall height under 300 lux lighting as reported by us previously.
Mice were anesthetized with 500 mg/kg chloral hydrate (Sigma-Aldrich, Germany) intraperitoneally 24 h after LPS administration. Blood and bronchoalveolar lavage (BAL) sampling was performed as described in [13]. Leukocyte counts and the lung permeability index were determined as described by us previously.
Histological and immunohistological assessment of tissue sections was performed in a semi-quantitative way on paraffin sections after hematoxylin and eosin staining with a light microscope (Zeiss, Germany) with double-blinding. The degree of inflammation was determined as previously reported.
Lung injury was assessed 24 h later based on behavioral, biochemical, cytological, and morphological alterations.

[6] = 4a 50 mg/kg (30 mg/kg in source) i.p.
[7] = 4a 50 mg/kg (30 mg/kg in source) i.p., 24 h after LPS
[8] = dexamethasone 5 mg/kg i.p., 24 h after LPS

IC50 [2] | inhibition at 0.01 µM (rabbit platelet NHE-1; rabbit platelets) | IC50 [1] | melting point | Compound | CC50 [3] | inhibition at 100 µM (rabbit platelets) | Max IOP Reduction (rat intraocular pressure) | also measured
 |  |  |  | CN(C)CCC=C1c2ccccc2CCc2ccccc21 [Amitriptyline, amitriptyline] |  |  |  | Immobilization Time (male ICR mice; 10 mg/kg): 50.2 ± 12.71 s
> 100 µM |  |  |  | N=C(N)NC(=O)c1cnn(-c2cccc3ncccc23)c1C1CC1 [Zoniporide, zoniporide, reference compound] | 407 ± 27.6 µM |  |  | EC50 ([1]; printed as EC50 in the IC50 column, read-out: NO Synthesis EC50 ± SE): 15.6 µM
 |  |  |  | CN(C)CCCN1c2ccccc2CCc2ccccc21 [Imipramine, imipramine] |  |  |  | Immobilization Time (male ICR mice; 8 mg/kg): 112.5 ± 20.56 s
 |  |  |  | CC(=O)Oc1ccccc1C(=O)O [Acetylsalicylic acid, acetylsalicylic acid, reference compound] |  | 31.6 ± 4.6% |  | 
64.8 ± 4.31 µM | 16.2 ± 3.75% | 71 ± 4.89 µM | > 400 °C | Nc1nnc(Cn2c(=O)c3cc(Br)ccc3n(Cc3nnc(N)[nH]3)c2=O)[nH]1 [Compound 4b, 1,3-Bis[(5-amino-4H-1,2,4-triazol-3-yl)methyl]-6-bromoquinazoline-2,4(1H,3H)-dione] | > 100 µM | 47.4 ± 8.9% | 15.45 ± 9.39% | IOP-lowering activity reduction relative to 4a (rat intraocular pressure): 2 fold; Immobilization Time (male ICR mice; 4.9 mg/kg): 168.2 ± 19.52 s
51.8 ± 1.65 µM | 29.4 ± 4.4% | 73 ± 7.83 µM | 314 to 318 °C | Nc1nnc(Cn2c(=O)c3ccccc3n(Cc3nnc(N)[nH]3)c2=O)[nH]1 [Compound 4a, 1,3-Bis[(5-amino-4H-1,2,4-triazol-3-yl)methyl]quinazoline-2,4(1H,3H)-dione] | > 100 µM | 39.3 ± 11.9% | 28.25 ± 7.92% | IC50 (rabbit platelet NHE-1; rabbit platelets): 0.324 µM; NHE-1 potency relative to amiloride (rabbit platelet NHE-1; ratio of IC50 vs amiloride): exceeding amiloride by four times; Immobilization Time (male ICR mice; 4.0 mg/kg): 164.4 ± 23.19 s; Cell viability (LDH assay) [4]: slightly decreased; Decrease of the mean number of phagocytosed particles ([5]; 72 h of incubation): 23%; Phagocytic activity ([5]; 72 h of incubation): insignificantly influenced; Macrophage spreading (visually scored) [5]: marginally reduced spreading; Exploratory activity, open field test (C57bl/6j mice; [6]): comparably improved exploratory activity; Motor activity, open field test (C57bl/6j mice; [6]): restored the motor activity of animals; CD68+ macrophage accumulation in lung tissue (immunostaining) (C57bl/6j mice; [7]): effectively limited LPS-induced inflammation; Lung tissue histology (hematoxylin and eosin) (C57bl/6j mice; [7]): reduced LPS-induced inflammation in mouse lung tissue; Plasma IL-6 (C57bl/6j mice; [7]): significantly reduced plasma IL-6; Pulmonary (alveolar) vessel permeability (C57bl/6j mice; [7]): preserved pulmonary vessels’ permeability; Segmented neutrophils in BAL (C57bl/6j mice; [7]): significantly ameliorated the accumulation of segmented neutrophils; also recorded: most pronounced inhibition of the neutrophil migration
> 100 µM | 37.2 ± 5.97% | > 100 µM | 336 to 338 °C | N=C(N)NC(=O)Cn1c(=O)c2ccccc2n(CC(=O)NC(=N)N)c1=O [Compound 3a, 2,2’-(2,4-Dioxoquinazoline-1,3(2H,4H)-diyl)bis(N-carbamimidoylacetamide)] | > 100 µM | 44.3 ± 14.3% | 10.08 ± 5.8% | NHE-1 IC50 (rabbit platelet NHE-1; rabbit platelets): nanomolar range; IOP-lowering activity reduction relative to 4a (rat intraocular pressure): 3 fold
 | 5.39 ± 1.82% | 0.62 ± 0.05 µM |  | N=C(N)NC(=O)c1nc(Cl)c(N)nc1N [Amiloride, amiloride, reference compound] | > 100 µM | 67.6 ± 1% | 18.39 ± 14.58% | IC50 (rabbit platelet NHE-1; rabbit platelets): 1.23 µM; Immobilization Time (male ICR mice; 2.6 mg/kg): 172.7 ± 8.54 s
0.003 ± 0.001 µM |  | 0.003 ± 0.001 µM |  | C[C@@H]1C[C@H]2[C@@H]3CCC4=CC(=O)C=C[C@]4(C)[C@@]3(F)[C@@H](O)C[C@]2(C)[C@@]1(O)C(=O)CO [Dexamethasone, dexamethasone, reference compound] | > 100 µM |  |  | Cell viability (LDH assay) [4]: did not influence cell viability; Mean number of phagocytosed particles per cell ([5]; 72 h of incubation): 59%; Phagocytic activity ([5]; 72 h of incubation): 41 % from control; Macrophage spreading (visually scored) [5]: more evident; Exploratory activity, open field test (C57bl/6j mice; dexamethasone 5 mg/kg i.p.): comparably improved exploratory activity; Motor activity, open field test (C57bl/6j mice; dexamethasone 5 mg/kg i.p.): reduced the LPS-induced motor and behavioral alterations; CD68+ macrophage accumulation in lung tissue (immunostaining) (C57bl/6j mice; [8]): significantly reduced this phenomenon; Plasma IL-6 (C57bl/6j mice; [8]): significantly reduced plasma IL-6; Segmented neutrophils in BAL (C57bl/6j mice; [8]): significantly ameliorated the accumulation of segmented neutrophils
> 100 µM | 10.2 ± 3.72% | > 100 µM | > 400 °C | N=C(N)NC(=O)Cn1c(=O)c2cc(Br)ccc2n(CC(=O)NC(=N)N)c1=O [Compound 3b, 2,2’-(6-Bromo-2,4-dioxoquinazoline-1,3(2H,4H)-diyl)bis(N-carbamimidoylacetamide)] | > 100 µM | 46.4 ± 9.2% | 24.17 ± 5.05% | 
